Data published in patent US20240290976A1, “CYCLOTETRABENZIL COMPOUNDS FOR ELECTROCHEMICAL LITHIUM-ION STORAGE” (UNIVERSITY OF HOUSTON SYSTEM, priority 2023, published 2024).
≈ marks a conversion by molar mass, not a printed value. Where “and” joins values, the source holds several entries; their conditions need not be identical. Identical values can stand only once.

Legend:
[1] = Solubility tests in 0.5M LiTFSI DME/DOL electrolyte; format: physicochemical; conditions: 0.5M LiTFSI in DME/DOL (v:v=1:1)
Experimental: In an argon-filled glovebox, certain mass of compounds 1-4 solids were added to vials. Then, 0.5M solution of LiTFSI in DME/DOL (v:v=1:1) was slowly added dropwise and the mixture was manually stirred until all material visibly dissolved. The amount of LiTFSI solution used was recorded to determine the solubility of each compound in the electrolyte. The order of solubility from highest to lowest is compound 4 (163.7 mmol L^−1), compound 1 (12.48 mmol L^−1), compound 2 (3.57 mmol L^−1), and compound 3 (2.76 mmol L^−1).

[2] = UV-vis of soaked solutions from cathode/separator at 50% state-of-discharge; format: physicochemical; conditions: ~360 nm; 50% state-of-charge; DME/DOL
Experimental: The CR2032 coin cell with cathode 2 or cathode 4 was discharged at the rate of 100 mA g^−1 until 50% state-of-discharge and was disassembled in an argon-filled glovebox. Then, the cathode and separator were immersed into 1.0 mL DME/DOL(1/1 v %) solvent for 6h. For the UV-vis absorption measurements, 30 μL of solution was extracted from the soaked vials and diluted with 3000 μL of DME/DOL solvent.

Row | solubility in the electrolyte [1] | melting point | absorbance intensity of soaked solution, higher than that of compound 2 [2] | SMILES
1 | 12.48 mM (≈ 6600 µg/mL) |  |  | O=C1C(=O)c2ccc(cc2)C(=O)C(=O)c2ccc(cc2)C(=O)C(=O)c2ccc(cc2)C(=O)C(=O)c2ccc1cc2 [compound 1]
2 | 3.6 ± 0.1 mM and 3.57 mM | > 360 °C (dec.) |  | O=C1C(=O)c2ccc3cc(ccc3c2)C(=O)C(=O)c2ccc3cc(ccc3c2)C(=O)C(=O)c2ccc3cc(ccc3c2)C(=O)C(=O)c2ccc3cc1ccc3c2 [compound 2]
3 | 2.76 mM (≈ 2300 µg/mL) | 332 to 334 °C |  | O=C1C(=O)c2ccc(cc2)-c2ccc(cc2)C(=O)C(=O)c2ccc(cc2)-c2ccc(cc2)C(=O)C(=O)c2ccc(cc2)-c2ccc(cc2)C(=O)C(=O)c2ccc(cc2)-c2ccc1cc2 [compound 3]
4 | 164 ± 1 mM and 163.7 mM |  | 300% | O=C(C(=O)c1ccc2ccccc2c1)c1ccc2ccccc2c1 [compound 4, 1,2-bis(2-naphthyl)ethan-1,2-dione, reference compound]
